The values that follow come from paper PMC7248705, “A Pharmacokinetic and Pharmacodynamic Evaluation of the Anti-Hepatocellular Carcinoma Compound 4-N-Carbobenzoxy-gemcitabine (Cbz-dFdC)” (Molecules, 2020).

Series [1] can be described thus: Plasma pharmacokinetics in vivo. To be noted: SD, rat, rats. As for the experimental part:
SD rats (n = 6) were intragastrically administered Cbz-dFdC (22 mg/kg) and intravenously injected with dFdC (15 mg/kg), and 150 μL blood samples were collected from the retro-orbital route in the right eye at 0, 5, 10, 20, and 30 min and at 1, 2, 4, 6, 12, 24, and 48 h, using heparinized tubes. Without delay, the blood was directly centrifuged at 8000× g at 4 °C for 5 min. Then, the supernatant plasma was collected and immediately extracted using a previously established method or was frozen at −80 °C until further analysis.

Series [2] deals with HepG2 cells. The experiment in a line: Cell uptake in HepG2 cells. It counts as cell-based, human. As for the experimental part: (§1) The cells were cultured on a 96-well plate for 4 h for each well. Then, dimethyl sulfoxide solution containing 0.1–100 mM of Cbz-dFdC and dFdC was diluted 1000 times with the medium before administration. A total of 200 uL of medium containing Cbz-dFdC and dFdC was added per well (n = 6). The medium with drugs was discarded, and 10% CCK-8 solution was added. Then, the absorbance value was read at a wavelength of 450 nm after incubation at 37 °C, for 30 min. The drug concentration of Cbz-dFdC and dFdC in cell were determined by a previously established method.

The nature of series [3]: Tissue distribution (liver, kidney, intestine). It counts as in vivo, SD rats. The settings on record: rats; drug concentration in tissue lower than plasma concentration. Here is the method: In order to investigate the drug distribution in different tissues and the relationship between CES1 activity and tissue concentration, we conducted tissue distribution experiments. The SD rats were divided into six groups (n = 6 for each group). After a single intragastric administration of Cbz-dFdC (22 mg/kg) and a single injected administration of dFdC (15 mg/kg), the SD rats were sacrificed at 0.5 h, 1.5 h, and 4 h, and the liver, kidney, and intestine were collected. The liver was perfused with ice-cold normal saline and then removed, followed by ice-cold normal saline cleaning. The kidney and intestine were directly removed and then washed with ice-cold normal saline. All of the above operations were carried out on ice, and the removed tissue was stored in an ice bath. The liver, kidney, and intestine were cut and crushed, homogenized with an appropriate amount of phosphate buffer by a homogenizer, and then diluted 5 times with ice-cold PBS buffer (in an ice bath). The tissue homogenates were determined with a BCA kit for protein concentration, a CES1 kit for CES1 activity, and UFLC–MS/MS for drug tissue concentration after pretreatment; the pretreatment method was reported previously.

For series [4], the system named is cytidine kinase. The arrangement: method as in PMID 1718594, PMID 1740680, PMID 8033147, PMID 12127861, PMID 23230131. The settings on record: after intravenous injection; cited from earlier work.
Details of series [5]: method as in PMID 22099048. The settings on record: humans, after intravenous injection; cited from earlier work.
Series [6] deals with human HepG2 cell line. The experiment in a line: CCK-8 tumor cell growth inhibition assay. In kind it is cell-based. The settings on record: HepG2, CCK-8, concentration-dependent. Here is the method: as §1
Details of series [7]: method as in PMID 22099048. To be noted: rats, after intravenous injection; cited from earlier work.
Details of series [8]: method as in PMID 22099048. The settings on record: cited from earlier work.
Substrate in series [9]: O=C(Nc1ccn([C@@H]2O[C@H](CO)[C@@H](O)C2(F)F)c(=O)n1)OCc1ccccc1
In words: Enzymatic kinetics in vitro, human CES1 recombinase. It counts as in vitro ADME. The settings on record: other: Human CES1 Recombinase, 37 °C, 30 min, 5–200 μM Cbz-dFdC. As for the experimental part: The SD rats without any treatment were sacrificed after adapting to the environment. Blank blood, the liver, the kidney, and the intestine were collected and treated as described in Section 4.4. Part of the homogenate was removed for centrifugation for 20 min at 9000× g at 4 °C, and the supernatant was obtained as tissue S9. The tissue homogenate and S9 were diluted to […] after the protein concentration was determined by the BCA kit (Abcam, Cambridge, MA, USA). Each matrix consisted of 45 uL of the matrix mixed with 5 uL of the drug dissolved in normal saline solution for about 3 min, followed by incubation at 37 °C in a water bath. Then, acetonitrile containing the internal standard was added to terminate the reaction. Human tissue S9 and human CES1 recombinase purchased from the Ruid Liver Disease Research Co., Ltd. (Shanghai, China) were incubated under the same conditions. An enzyme kinetic study was obtained from the matrix following incubation at 37 °C for 30 min with 5, 10, 20, 50, 100, or 200 μM of Cbz-dFdC. We estimated the parameters and simulated curves according to the Eadie–Hofstee method.

Setting [10] is: iv, plasma, after i.v. dFdC 15 mg/kg.
Where [11] appears, read: plasma, 15 mg/kg, after dFdC intravenous injection.
[12] abbreviates: plasma, oral, 22 mg/kg, dFdC metabolized from Cbz-dFdC after i.g. Cbz-dFdC.
[13] abbreviates: po, plasma analyte after i.g. Cbz-dFdC 22 mg/kg.

Read-outs that look alike come from different tables or passages of the source.

One may read the AUC(0-inf) as total exposure, with the tail of the curve extrapolated. A higher AUC(0-inf) goes with more exposure. As usually defined, the Cmax is the maximum level reached in the sampled fluid or tissue. For orientation: Tmax means the time from dosing to the highest level. One may read the half-life as the time needed for the level to fall by half in the phase considered. With `Nc1ccn([C@@H]2O[C@H](CO)[C@@H](O)C2(F)F)c(=O)n1` [dFdC, Gemcitabine], the AUC(0-inf) in series [1] (setting [10]) came to 22700 ng·h/mL; in series [1] (setting [13]) it was 27500 ng·h/mL. The values for the peak concentration (Cmax) in series [1] (setting [10]) and in series [1] (setting [13]) were 14100 ng/mL and 1660 ± 432 ng/mL, respectively. Further, the figures for the Tmax in series [1] (setting [10]) and in [1] (setting [13]) were 0.083 h and 4 h, respectively. For the same molecule, the half-life was 10.6 ± 1.86 h in series [1] (setting [10]), 10.4 ± 0.91 h in series [1] (setting [13]), 0.2 h in series [5] and 2.0 h in series [7]. For the same molecule, the concentration at 12 h in series [1] (setting [11]) was about 200 ng/mL; in series [1] (setting [12]) it was about 600 ng/mL. The concentration at 48 h is about 40 ng/mL in series [1] (setting [11]) and about 130 ng/mL in series [1] (setting [12]). The concentration at 24 h in series [1] (plasma, intravenous, after i.v. dFdC 15 mg/kg) is about 130 ng/mL; in series [1] (plasma, oral, 22 mg/kg, after i.g. Cbz-dFdC), about 300 ng/mL. In addition, the C0 in [1] (plasma, iv, after i.v. dFdC 15 mg/kg, read-out: initial plasma concentration) is about 15000 ng/mL. Further, the “intracellular concentration (cell uptake)” value in series [2] was “higher than that of dFdC, after the Cbz-dFdC treatment”. Moreover, in [3], the tissue penetration entry is on record as “weak tissue penetration”. In addition, the “active monophosphate, diphosphate and triphosphate metabolites, share of the dose” value in [4] was “about 10%”. Besides, the “cytotoxicity / tumor cell growth inhibition” value in series [6] is listed as “better than that of Cbz-dFdC”. Besides, in series [8], the “toxic effects on the gastrointestinal tract” value was “serious toxic effects on the gastrointestinal tract”.

B1: Human CES1 Recombinase (Homo sapiens) (protein)
chain: GHPSSPPVVDTVHGKVLGKFVSLEGFAQPVAIFLGIPFAKPPLGPLRFTPPQPAEPWSFVKNATSYPPMCTQDPKAGQLLSELFTNRKENIPLKLSEDCLYLNIYTPADLTKKNRLPVMVWIHGGGLMVGAASTYDGLALAAHENVVVVTIQYRLGIWGFFSTGDEHSRGNWGHLDQVAALRWVQDNIASFGGNPGSVTIFGESAGGESVSVLVLSPLAKNLFHRAISESGVALTSVLVKKGDVKPLAEQIAITAGCKTTTSAVMVHCLRQKTEEELLETTLKMKFLSLDLQGDPRESQPLLGTVIDGMLLLKTPEELQAERNFHTVPYMVGINKQEFGWLIPMQLMSYPLSEGQLDQKTAMSLLWKSYPLVCIAKELIPEATEKYLGGTDDTVKKKDLFLDLIADVMFGVPSVIVARNHRDAGAPTYMYEFQYRPSFSSDMKPKTVIGDHGDELFSVFGAPFLKEGASEEEIRLSKMVMKFWANFARNGNPNGEGLPHWPEYNQKEGYLQIGANTQAAQKLKDKEVAFWTNLFAKKAVEKPPQTEHIEL
notes: purchased Ruid Liver Disease Research Co., Ltd. (Shanghai, China)
As a reminder, the Km is the concentration of substrate that gives half-maximal velocity. Regarding B1, in series [9] (appearance of dFdC), the Michaelis constant (Km) was 107.2 µM and the Vmax/Km stood at 36500 µL/min/mg. In [9] (disappearance of Cbz-dFdC), the Km was 258.6 µM and the Vmax/Km is 72700 µL/min/mg.
